In US20060293223A1 (Eli Lilly and Company Patent Division, priority 2003, published 2006) one finds MC1/MC4 selectivity data, which are given here for 73 substances.

Positions of bridges follow the written chain, without caps; N, C: chain ends. Non-standard residues stand in square brackets, D forms with d. hCys = N[C@@H](CCS)C(=O)O

The test system of this assay is MC1/MC4. Conditions: ratio MC1/MC4.
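Note: ratio of EC50 values obtained at MC1 versus MC4 receptors, with MC1 potency measured by luciferase reporter activity in stably transfected cells expressing human MC1.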

As for “Ac-Tyr-Arg-cyclo[Cys-Glu-His-D-Phe-Arg-Trp-Cys]-OH [Compound 73]”, the MC1/MC4 selectivity came out at 12.77.

For the substance “Ac-Tyr-Arg-cyclo[Cys-Glu-His-D-Phe-Arg-Trp-Cys]-Ser alcohol [Compound 116]”, the MC1/MC4 selectivity was 4.00.

For “Ac-Tyr-Arg-cyclo[Cys-Glu-His-D-Phe-Arg-Trp-Cys]-Ser-Pro alcohol [Compound 120]”, the MC1/MC4 selectivity came out at 1.00.

With “Ac-Tyr-Arg-cyclo[Cys-Glu-His-D-Phe-Arg-Trp-Cys]-glycinol [Compound 114]”, the MC1/MC4 selectivity was 4.00.

On to “Ac-Tyr-Arg-cyclo[Cys-Glu-His-D-Phe-Arg-Trp-hCys]-NH2 [Compound 192]”, for which the MC1/MC4 selectivity came out at 1.00.

As to “Ac-Tyr-Arg-cyclo[D-Cys-Glu-His-D-Phe-Arg-Trp-Cys]-NH2 [Compound 80]”, the MC1/MC4 selectivity was found to be 8.24.

Consider “Ac-Tyr-Arg-cyclo[hCys-Glu-His-D-Phe-Arg-Trp-Cys]-NH2 [Compound 166]”, for which the MC1/MC4 selectivity is listed as 9.38.

Take “Ac-Tyr-Arg-cyclo[hCys-Glu-His-D-Phe-Arg-Trp-hCys]-NH2 [Compound 197]”: the MC1/MC4 selectivity is 1.00.

Regarding “Ac-Tyr-Cit-cyclo[Cys-Glu-(1-Me-His)-D-Phe-Arg-Trp-Cys]-NH2 [Compound 125]”, the MC1/MC4 selectivity came to 25.08.

“Ac-Tyr-Cit-cyclo[Cys-Glu-His-D-Phe-Arg-Trp-Cys]-NH2 [Compound 124]”: the MC1/MC4 selectivity was determined as 18.11.

Turning to “Ac-Tyr-D-Arg-cyclo[Cys-Glu-His-D-Phe-Arg-Trp-Cys]-NH2 [Compound 79]”, the MC1/MC4 selectivity worked out at 21.79.

“Ac-Tyr-hArg-cyclo[Cys-Glu-His-D-Phe-Arg-Trp-Cys]-NH2 [Compound 126]”: the MC1/MC4 selectivity is 22.64.

Turning to “Ac-VCEH[dF]RWC-NH2 (disulfide 2-8) [Compound 63]”, the MC1/MC4 selectivity is listed as 30.51.

Turning to “Ac-YKCEH[dF]RWC-NH2 (disulfide 3-9) [Compound 128]”, the MC1/MC4 selectivity is recorded as 22.46.

With “Ac-YRCDH[dF]RWC-NH2 (disulfide 3-9) [Compound 7]”, the MC1/MC4 selectivity is on record as 15.00.

Regarding “Ac-YRCEH[dF]RWCE-NH2 (disulfide 3-9) [Compound 118]”, the MC1/MC4 selectivity is reported as 4.52.

“Ac-YRCEH[dF]RWCKP-NH2 (disulfide 3-9) [Compound 121]”: the MC1/MC4 selectivity is on record as 0.74.

With “Ac-YRCEH[dF]RWCRF-NH2 (disulfide 3-9) [Compound 123]”, the MC1/MC4 selectivity turned out to be 2.42.

As to “Ac-YRCEH[dF]RWCSP-NH2 (disulfide 3-9) [Compound 119]”, the MC1/MC4 selectivity is 0.86.

As for “Ac-YRCFH[dF]RWC-NH2 (disulfide 3-9) [Compound 19]”, the MC1/MC4 selectivity stood at 7.64.

Regarding “Ac-YRCGH[dF]RWC-NH2 (disulfide 3-9) [Compound 12]”, the MC1/MC4 selectivity turned out to be 6.72.

Turning to “Ac-YRCIH[dF]RWC-NH2 (disulfide 3-9) [Compound 14]”, the MC1/MC4 selectivity was determined as 12.54.

Consider “Ac-YRCMH[dF]RWC-NH2 (disulfide 3-9) [Compound 18]”, for which the MC1/MC4 selectivity was 8.15.

Regarding “Ac-YRCNH[dF]RWC-NH2 (disulfide 3-9) [Compound 5]”, the MC1/MC4 selectivity was 5.00.

On to “Ac-YRCPH[dF]RWC-NH2 (disulfide 3-9) [Compound 20]”, for which the MC1/MC4 selectivity worked out at 4.81.

On to “Ac-YRCQH[dF]RWC-OH (disulfide 3-9) [Compound 9]”, for which the MC1/MC4 selectivity is given as 10.00.

With “Ac-YRCQH[dF]RWC-OMe (disulfide 3-9) [Compound 10]”, the MC1/MC4 selectivity worked out at 9.50.

Regarding “Ac-YRCRH[dF]RWC-NH2 (disulfide 3-9) [Compound 4]”, the MC1/MC4 selectivity is recorded as 0.26.

Take “Ac-YRCSH[dF]RWC-NH2 (disulfide 3-9) [Compound 21]”: the MC1/MC4 selectivity turned out to be 10.27.

In the case of “Ac-YRCTH[dF]RWC-NH2 (disulfide 3-9) [Compound 22]”, the MC1/MC4 selectivity was found to be 6.85.

As to “Ac-YRCVH[dF]RWC-NH2 (disulfide 3-9) [Compound 25]”, the MC1/MC4 selectivity is 11.00.

Take “Ac-YRCWH[dF]RWC-NH2 (disulfide 3-9) [Compound 23]”: the MC1/MC4 selectivity was found to be 10.54.

On to “Ac-YRCYH[dF]RWC-NH2 (disulfide 3-9) [Compound 24]”, for which the MC1/MC4 selectivity is on record as 8.00.

For the substance “Ac-YR[hCys]H[dF]RWC-NH2 (disulfide 3-8) [Compound 164]”, the MC1/MC4 selectivity amounted to 7.79.

Turning to “Ac-YR[hCys]H[dF]RWC-OH (disulfide 3-8) [Compound 165]”, the MC1/MC4 selectivity is 13.53.

In the case of “Ac-YR[hCys]H[dF]RW[hCys]-NH2 (disulfide 3-8) [Compound 196]”, the MC1/MC4 selectivity turned out to be 4.98.

In the case of “Ac-YSCEH[dF]RWC-NH2 (disulfide 3-9) [Compound 129]”, the MC1/MC4 selectivity came to 22.16.

Consider “Ac-YVCEH[dF]RWC-NH2 (disulfide 3-9) [Compound 130]”, for which the MC1/MC4 selectivity was 26.88.

As to “Ac-[hCys]H[dF]RW[hCys]-NH2 (disulfide 1-6) [Compound 193]”, the MC1/MC4 selectivity is listed as 26.59.

Take “Ac-cyclo(S—CH2—S)[Cys-His-D-Phe-Arg-Trp-Cys]-NH2 [Compound 198]”: the MC1/MC4 selectivity is recorded as 13.07.

As for “Ac-cyclo[Cys-Glu-(1-Me-His)-D-Phe-Arg-Trp-Cys]-NH2 [Compound 34]”, the MC1/MC4 selectivity was determined as 11.52.

For the substance “Ac-cyclo[Cys-Glu-His-(4-Br-D-Phe)-Arg-Trp-Cys]-NH2 [Compound 33]”, the MC1/MC4 selectivity came to 79.54.

Consider “Ac-cyclo[Cys-Glu-His-(4-Cl-D-Phe)-Arg-Trp-Cys]-NH2 [Compound 32]”, for which the MC1/MC4 selectivity was 66.88.

For the substance “Ac-cyclo[Cys-Glu-His-(4-F-D-Phe)-Arg-Trp-Cys]-NH2 [Compound 31]”, the MC1/MC4 selectivity worked out at 57.02.

Take “Ac-cyclo[Cys-His-(4-Cl-D-Phe)-Arg-Trp-hCys]-NH2 [Compound 185]”: the MC1/MC4 selectivity was determined as 269.59.

Turning to “Ac-cyclo[Cys-His-D-Phe-Arg-Trp-hCys]-NH2 [Compound 183]”, the MC1/MC4 selectivity is 53.39.

Turning to “Ac-cyclo[hCys-His-(4-Cl-D-Phe)-Arg-Trp-Cys]-NH2 [Compound 140]”, the MC1/MC4 selectivity was found to be 128.15.

In the case of “Ac-cyclo[hCys-His-(4-Cl-D-Phe)-Arg-Trp-penicillamine]-NH2 [Compound 169]”, the MC1/MC4 selectivity came out at 1804.00.

On to “Ac-cyclo[hCys-His-(4-F-D-Phe)-Arg-Trp-Cys]-NH2 [Compound 139]”, for which the MC1/MC4 selectivity is recorded as 44.29.

For the substance “Ac-cyclo[hCys-His-(β-cyclohexyl-D-Ala)-Arg-Trp-Cys]-NH2 [Compound 167]”, the MC1/MC4 selectivity is recorded as 3.36.

Turning to “Ac-cyclo[hCys-His-D-Phe-Arg-Trp-Cys]-OH [Compound 138]”, the MC1/MC4 selectivity is recorded as 38.81.

As to “Ac-cyclo[hCys-His-D-Phe-Arg-Trp-penicillamine]-NH2 [Compound 168]”, the MC1/MC4 selectivity is on record as 212.71.

In the case of “Ac-diaminobutyryl-cyclo[Cys-Glu-His-D-Phe-Arg-Trp-Cys]-NH2 [Compound 44]”, the MC1/MC4 selectivity is on record as 15.00.

As to “Ac-diaminopropionyl-cyclo[Cys-Glu-His-D-Phe-Arg-Trp-Cys]-NH2 [Compound 43]”, the MC1/MC4 selectivity came out at 11.00.

In the case of “Ac-hArg-cyclo[Cys-Glu-His-D-Phe-Arg-Trp-Cys]-NH2 [Compound 54]”, the MC1/MC4 selectivity worked out at 20.85.

“Ac-nLeu-cyclo[Cys-Glu-His-D-Phe-Arg-Trp-Cys]-NH2 [Compound 60]”: the MC1/MC4 selectivity is 29.95.

As to “Ac-nLeu-cyclo[Cys-Glu-His-D-Phe-Arg-Trp-Cys]-Ser-Pro-NH2 [Compound 61]”, the MC1/MC4 selectivity was 1.70.

With “Ac-nLeu-cyclo[hCys-His-D-Phe-Arg-Trp-Cys]-NH2 [Compound 160]”, the MC1/MC4 selectivity is listed as 0.90.

As for “Arg-cyclo[Cys-Glu-His-D-Phe-Arg-Trp-Cys]-OH [Compound 45]”, the MC1/MC4 selectivity amounted to 30.47.

For the substance “Arg-cyclo[Cys-His-(4-Cl-D-Phe)-Arg-Trp-hCys]-NH2 [Compound 188]”, the MC1/MC4 selectivity is 29.56.

On to “Arg-cyclo[Cys-His-(4-F-D-Phe)-Arg-Trp-hCys]-NH2 [Compound 187]”, for which the MC1/MC4 selectivity worked out at 20.76.

Consider “Arg-cyclo[hCys-(1-Me-D-His)-D-Phe-Arg-Trp-Cys]-NH2 [Compound 157]”, for which the MC1/MC4 selectivity is 17.60.

For the substance “Arg-cyclo[hCys-(1-Me-His)-D-Phe-Arg-Trp-Cys]-NH2 [Compound 156]”, the MC1/MC4 selectivity is on record as 158.41.

For the substance “Arg-cyclo[hCys-His-D-Phe-Arg-Trp-hCys]-NH2 [Compound 194]”, the MC1/MC4 selectivity was 10.61.

Regarding “N-(2-naphthalenesulfonyl)-D-Arg-cyclo[Cys-Glu-His-D-Phe-Arg-Trp-Cys]-NH2 [Compound 64]”, the MC1/MC4 selectivity is 4.12.

In the case of “N-(2-naphthalenesulfonyl)-cyclo[hCys-His-D-Phe-Arg-Trp-Cys]-NH2 [Compound 151]”, the MC1/MC4 selectivity turned out to be 14.00.

As to “N-(2-naphthalenesulfonylamino-4-oxo-butyryl)-D-Arg-cyclo[Cys-Glu-His-D-Phe-Arg-Trp-Cys]-NH2 [Compound 65]”, the MC1/MC4 selectivity is listed as 2.70.

Regarding “N-(4-phenylsulfonamido-4-oxo-butyryl)-cyclo[hCys-His-D-Phe-Arg-Trp-Cys]-NH2 [Compound 152]”, the MC1/MC4 selectivity stood at 7.73.

Regarding “N-butyryl-cyclo[Cys-Glu-His-D-Phe-Arg-Trp-Cys]-NH2 [Compound 38]”, the MC1/MC4 selectivity is reported as 28.16.

As for “N-cyclobutanecarbonyl-cyclo[hCys-His-D-Phe-Arg-Trp-Cys]-NH2 [Compound 142]”, the MC1/MC4 selectivity turned out to be 35.55.

Regarding “N-cyclohexanecarbonyl-cyclo[hCys-His-D-Phe-Arg-Trp-Cys]-NH2 [Compound 144]”, the MC1/MC4 selectivity is reported as 14.85.

Regarding “N-cyclohexanecarbonyl-cyclo[hCys-His-D-Phe-Arg-Trp-penicillamine]-NH2 [Compound 172]”, the MC1/MC4 selectivity is on record as 26.45.

On to “N-cyclopentanecarbonyl-cyclo[hCys-His-D-Phe-Arg-Trp-Cys]-NH2 [Compound 143]”, for which the MC1/MC4 selectivity came to 19.27.
